Active and inactive are the calls of the source.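 Rule for the calls: active = growth down by 35% or more in duplicate, reached at no more than twice the top tested dose; inactive = growth raised instead, and the rest.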

This assay is described as follows: Pseudomonas aeruginosa growth inhibition with EDDHA – absorbance, plate reader, cherry-picks, dose response (AID 602389). To be noted: P. aeruginosa growth with EDDHA, OD600, 24-30 h; at 50 µM (top of the series).
As to `O=[N+]([O-])c1ccc(-c2cccnc2)cc1`, the growth change, negative = inhibition is -3.69% (inactive). Consider `CCOC(=O)c1cnc(-c2ccccc2)nc1N`, for which the growth change, negative = inhibition is -4.77% (inactive).

Regarding `COC(=O)c1cc(-c2ccc(OC)cc2)on1`, the growth change, negative = inhibition was -7.05% (inactive). For `O=CN(c1ccccc1)c1ccc2ccccc2c1`, the growth change, negative = inhibition was -5.6% (inactive). The value for `N#CC(c1ccc(Cl)nn1)c1c(F)cccc1Cl` (stereo unspecified) was 15% (inactive).

With `CSC1=N/C(=C\C=C\c2cccs2)C(=O)S1`, the growth change, negative = inhibition is 13.6% (inactive). Then `Nc1ccc(OCc2ccccc2)cc1[N+](=O)[O-]`, with 3.9% (inactive). As for `O=C1N[C@@H](Cc2ccccc2)[C@@H](c2ccco2)O1`, the growth change, negative = inhibition is 16.2% (inactive). Then `COc1ccccc1C(C#N)c1cccc(Cl)n1` (stereo unspecified), with 5.02% (inactive); and `COC(=O)c1ccc(/C=C(\C#N)c2ccccn2)cc1`, with 9.37% (inactive). `CC(C)CCNC(=O)c1cccc(Cl)c1`: the growth change, negative = inhibition was -12.3% (inactive).

As for `COC(=O)c1ccc(NC(=S)N2CCCC2)cc1`, the growth change, negative = inhibition was 12% (inactive). The value for `Cc1ccc2scc(CN3CCCC3)c2c1` was -6.73% (inactive); that for `CCOC1=CC(=O)OC(c2ccccc2)C1` (stereo unspecified) was 3.24% (inactive).

Consider `N#CC(c1ccccc1)c1cccc(Cl)n1` (stereo unspecified), for which the growth change, negative = inhibition was -11.7% (inactive). The value for `CCC(C)NS(=O)(=O)c1ccc(OC)c(Cl)c1Cl` (stereo unspecified) was -10.7% (inactive); that for `Cc1cccc(NC(=O)Nc2cc(C)on2)c1` was 2.69% (inactive); that for `N#C/C(=C/c1ccco1)c1nc2ccccc2s1` was 18.7% (inactive). Then `O=C1C=C(c2cc(F)ccc2F)C[C@@H](c2ccc(F)cc2)C1`, with -1.93% (inactive); and `CCOC(=O)CC(C#N)c1cn(C)c2ccccc12` (stereo unspecified), with -0.14% (inactive); and `N#CC(c1ccc(Cl)nn1)c1ccccc1Cl` (stereo unspecified), with -4.43% (inactive).

Consider `O=C1C2C3C=CC(C4CC34)C2C(=O)N1Cc1ccco1` (stereo unspecified), for which the growth change, negative = inhibition is 43.3% (inactive).

As for `Clc1cccc(CNCCCSc2ncccn2)c1`, the growth change, negative = inhibition is -7.39% (inactive).

With `O=C(NCC1CC1)c1cc([N+](=O)[O-])cc([N+](=O)[O-])c1`, the growth change, negative = inhibition was 7.47% (inactive). Turning to `CC(C)(C)NC(=O)c1cc(Cl)ccc1[N+](=O)[O-]`, the growth change, negative = inhibition is 12.1% (inactive). The value for `O=[N+]([O-])c1ccc(N2CCCC2)nc1` was 9.43% (inactive); that for `CO/N=C/c1cn(-c2ccc(Cl)cc2)nn1` was -0.342% (inactive). Then `COc1ccc(N2CCN(C(=O)c3ccc(Br)o3)CC2)cc1`, with -4.3% (inactive); and `N#CC(c1cccc(Cl)c1)c1ncc(C(F)(F)F)cc1Cl` (stereo unspecified), with 1.76% (inactive); and `CCOC(=O)c1ccc(N2Cc3ccccc3C2=N)cc1`, with -6.69% (inactive). As for `Cc1cccc(NC(=O)c2ccc3c(c2)OCCO3)n1`, the growth change, negative = inhibition is 2.6% (inactive). As to `CCOC(=O)/C=C(\C)Sc1cc(=O)oc2ccccc12`, the growth change, negative = inhibition is 19.4% (inactive). The value for `O=[N+]([O-])c1ccc(N2CCCCC2)cc1` was 8.85% (inactive); that for `COc1ccc(N=C(C)C2=C(O)CSC2=O)cc1` was 15.6% (inactive).

As to `Cc1ccc(C(C#N)c2ccc(Cl)nn2)cc1` (stereo unspecified), the growth change, negative = inhibition was -0.103% (inactive). As to `N#CC(c1ccc(Cl)nn1)c1ccc(Cl)cc1Cl` (stereo unspecified), the growth change, negative = inhibition was -0.745% (inactive). As for `O=C1C=C(c2cccc(Cl)c2)C[C@@H](c2ccc(F)cc2)C1`, the growth change, negative = inhibition is 17.4% (inactive). Then `CCOC(=O)c1ccc(-c2ccc(CO)o2)cc1`, with -6.54% (inactive); and `N#CCn1c(C2CCCCC2)nc2ccccc2c1=O`, with 17.3% (inactive); and `O=C(Nc1ncc([N+](=O)[O-])s1)c1cccc([N+](=O)[O-])c1`, with -9.89% (inactive). The value for `CCCNS(=O)(=O)c1ccc(OC)c(Cl)c1Cl` was -7.21% (inactive); that for `OC(c1cccc(Cl)c1)c1nccc2ccccc12` (stereo unspecified) was -6.69% (inactive). `N#CC(Sc1ccccn1)c1ccc(Cl)cc1` (stereo unspecified): the growth change, negative = inhibition is 15.4% (inactive). Then `COC(=O)c1ccc(OC(=O)c2ccco2)cc1`, with -12.9% (inactive); and `O=C(/C=C/c1cccs1)c1cc(Cl)ccc1O`, with 18.9% (inactive); and `N#CC1C(C#N)C2CCC1C1C2N1c1ccccc1` (stereo unspecified), with -7.23% (inactive).

With `CCOC(=O)c1ccc(-c2ccc(C=O)o2)cc1`, the growth change, negative = inhibition was 7.58% (inactive).

For the compound `N#Cc1cc([N+](=O)[O-])ccc1N1CCCC1`, the growth change, negative = inhibition was -11.4% (inactive). With `Cc1cc(S(=O)(=O)NCC2CC2)c(Cl)cc1Cl`, the growth change, negative = inhibition was 9.74% (inactive). Then `Cc1ccc(S(=O)(=O)NCCC(C)C)cc1[N+](=O)[O-]`, with 1.56% (inactive). With `COc1ccc(-c2cc3ncccc3cn2)cc1`, the growth change, negative = inhibition is 7% (inactive). Regarding `Cc1ccc(S(=O)c2ccc(C)cc2)cc1`, the growth change, negative = inhibition was 0.078% (inactive). Then `CCCCCC1CC(COc2ccccc2)OC1=O` (stereo unspecified), with -10.5% (inactive); and `CN(Cc1ccccc1)c1ncnc2ccc(Br)cc12`, with 9.04% (inactive); and `CCOC(=O)CCCn1ncn2c(cc3occc32)c1=O`, with -2.87% (inactive). Then `O=C(NC1CCCCCCC1)c1cccc(Cl)c1`, with -14.2% (inactive). Regarding `O=[N+]([O-])c1ccc(N2CCCCC2)nc1`, the growth change, negative = inhibition was -2.09% (inactive). Then `COc1ccc(/C=C/C(=O)c2ccoc2)cc1`, with 4.86% (inactive).

Turning to `Cc1cc(C)nc(N(C#N)Cc2cccc([N+](=O)[O-])c2)n1`, the growth change, negative = inhibition was 12.9% (inactive).

`Clc1ccc2scc(CN3CCCCC3)c2c1`: the growth change, negative = inhibition was -3.92% (inactive). Then `O=C(NC1CCSC1)c1cccc(Cl)c1` (stereo unspecified), with 2.12% (inactive); and `O=C1C2C(C(=O)N1Cc1ccco1)C1C=CC2C12CC2` (stereo unspecified), with 2.46% (inactive); and `Cc1cc(NC(=O)c2c(F)c(F)c(F)c(F)c2F)no1`, with 14.5% (inactive). As to `Cc1ccc2nc(-c3ccc4c(c3)OCCO4)cn2c1`, the growth change, negative = inhibition was 3.5% (inactive).

In the case of `CCNC(=O)COc1ccc2ccccc2c1`, the growth change, negative = inhibition was 3.07% (inactive). For the compound `Cn1cccc1C(C#N)c1ccccc1C#N` (stereo unspecified), the growth change, negative = inhibition was 9.31% (inactive).

The record behind these values is PubChem BioAssay AID602389 (Broad Institute, 2012).
